The record followed here is US20070111265A1, “Ligands for mineralocorticoid receptor (MR) and methods for screening for or designing MR ligands” (Van Andel Research Institute, priority 2005, published 2007).

Positions count from the first letter of the chain named. “Also recorded” adds a separate entry of the source. Where two headings read alike, the source gives them in different places.

Experiment [1] addresses T1, GR Q642L (Homo sapiens, UniProt P04150, Q642L).
T1 construct: reverse mutations in the full length GR receptor (P637S and Q642L); expressed in transfected cells; host or cells: Cos-7
T1 sequence (P04150 1-777 Q642L): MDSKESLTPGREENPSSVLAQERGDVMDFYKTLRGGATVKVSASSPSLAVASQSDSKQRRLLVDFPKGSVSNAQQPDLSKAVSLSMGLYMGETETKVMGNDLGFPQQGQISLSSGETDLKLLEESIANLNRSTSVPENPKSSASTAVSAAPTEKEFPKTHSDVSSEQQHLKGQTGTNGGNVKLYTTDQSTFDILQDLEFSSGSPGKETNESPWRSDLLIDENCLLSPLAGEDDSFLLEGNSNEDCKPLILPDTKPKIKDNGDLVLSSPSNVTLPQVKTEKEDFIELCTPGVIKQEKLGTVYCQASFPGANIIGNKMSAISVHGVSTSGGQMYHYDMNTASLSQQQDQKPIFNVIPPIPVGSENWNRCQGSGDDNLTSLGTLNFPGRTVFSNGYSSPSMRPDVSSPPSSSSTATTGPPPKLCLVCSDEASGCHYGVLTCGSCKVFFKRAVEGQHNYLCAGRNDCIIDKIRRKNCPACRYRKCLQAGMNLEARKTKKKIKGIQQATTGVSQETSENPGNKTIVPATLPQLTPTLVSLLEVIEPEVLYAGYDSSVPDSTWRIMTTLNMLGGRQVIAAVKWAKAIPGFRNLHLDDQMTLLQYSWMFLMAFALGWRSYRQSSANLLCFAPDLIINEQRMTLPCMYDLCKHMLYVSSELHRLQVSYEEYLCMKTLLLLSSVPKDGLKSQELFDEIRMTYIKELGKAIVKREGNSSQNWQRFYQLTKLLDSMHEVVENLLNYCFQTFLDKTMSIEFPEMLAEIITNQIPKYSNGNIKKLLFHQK
As to the kind of experiment: MMTV luciferase reporter assay in Cos-7 cells. The format is cell-based. The following applies: Cos-7, MMTV-Luc. As to the method:
(§1) Cos-7 cells were maintained in DMEM containing 10% fetal bovine serum (FBS) and were transiently transfected using Lipofectamine 2000 (Invitrogen). […] Cells were transfected in Opti-MEM with 400 ng of MMTV-Luc reporter plasmid and 400 ng of receptor expression vector (pRS vector) encoding full-length GR and MR respectively (ATCC). […] Luciferase data were normalized to Renilla activity as an internal control.
(§2) To validate the role of the key MR pocket residues in hormone recognition, the inventors mutated S843 and L848 to the corresponding GR residues (S843P and L848Q) within the context of the full length wild type receptor. […] We also performed reverse mutations in the full length GR receptor (P637S and Q642L) and tested them in the same MMTV reporter.

Experiment [2] addresses T2, wild type GR (full-length) (Homo sapiens, UniProt P04150).
T2 sequence (P04150 1-777): T1 sequence (P04150 1-777 Q642L) with L642Q
As to the kind of experiment: MMTV luciferase reporter assay in Cos-7 cells. It is filed as cell-based. As to the method: as §1, §2
A general note: A reporter such as luciferase makes a cellular process visible.

For the compound `C[C@]12C[C@H](O)[C@H]3[C@@H](CCC4=CC(=O)CC[C@@]43C)[C@@H]1CC[C@@H]2C(=O)CO` [corticosterone], in experiment [1], the “activation of GR Q642L” value is “remained intact”. Further, the EC50 is around 0.02 µM in experiment [2] (Cos-7, MMTV-Luc, read-out: EC50, activation of wild type GR) and around 0.01 µM in experiment [2] (summary of FIG. 5 dose-response, read-out: affinity to GR (shown in FIG. 5)).

Regarding `C[C@]12CCC(=O)C=C1CC[C@@H]1[C@@H]2[C@@H](O)C[C@@]2(C)[C@H]1CC[C@]2(O)C(=O)CO` [cortisol], in experiment [1], the “activation of GR Q642L” value is on record as “completely abolished activation; also recorded: inability of cortisol to activate”.
